Assay results taken from patent US9096565B2, “Inhibitors of histone deacetylase” (MethylGene Inc., priority 2007, dated 2015).

The compounds below were run against one or more of HDAC-4, HDAC-5, HDAC-6, HDAC-7, HDAC-8, HDAC-9, HDAC-10 and HDAC-11 (assay: Inhibition of histone deacetylase enzymatic activity (summary statement over isoforms)). Settings: Table 3, selected examples; HDAC isoform not given.
Format: biochemical
Protocol: The following protocol is used to assay the compounds of the invention.
The mixture is pre-incubated for 5 minutes at room temperature. The reaction is started by bringing the temperature to 37° C. and adding 15 μL substrate. Total reaction volume is 50 μL.
A 30 mM stock of Boc-Lys(trifluoroacetyl)-AMC substrate is prepared in DMSO. […] Reaction is started by adding 18 μL Boc-Lys(trifluoroacetyl)-AMC substrate and incubating at 37° C. for 20-30 minutes. The reaction is stopped by adding 50 μL trypsin (1 mg/mL) and a known HDAC inhibitor.

Row | IC50 | Structure (SMILES)
1 | < 1000 nM | O=C(Nc1ccc(C(C(=O)NO)c2ccccc2)cc1)C1CCCCC1 (stereo not shown) [Compound 2-57, N-(4-(2-(hydroxyamino)-2-oxo-1-phenylethyl)phenyl)cyclohexanecarboxamide]
2 | 1000 to 15000 nM | O=C(Nc1cccc(C(C(=O)NO)c2ccccc2)c1)C1CCCCC1 (stereo not shown) [Compound 2-58, N-(3-(2-(hydroxyamino)-2-oxo-1-phenylethyl)phenyl)cyclohexanecarboxamide]
3 | < 1000 nM | O=C(Cc1ccccc1)Nc1ccc(C(C(=O)NO)c2ccccc2)cc1 (stereo not shown) [Compound 2-59, N-hydroxy-2-phenyl-2-(4-(2-phenylacetamido)phenyl)acetamide]
4 | < 1000 nM | O=C(Cc1ccccc1)Nc1cccc(C(C(=O)NO)c2ccccc2)c1 (stereo not shown) [Compound 2-60, N-hydroxy-2-phenyl-2-(3-(2-phenylacetamido)phenyl)acetamide]
5 | < 1000 nM | O=C(Nc1ccc(C(C(=O)NO)c2ccccc2)cc1)c1ccc(F)cc1 (stereo not shown) [Compound 2-61, 4-fluoro-N-(4-(2-(hydroxyamino)-2-oxo-1-phenylethyl)phenyl)benzamide]
6 | < 1000 nM | O=C(Nc1cccc(C(C(=O)NO)c2ccccc2)c1)c1ccc(F)cc1 (stereo not shown) [Compound 2-62, 4-fluoro-N-(3-(2-(hydroxyamino)-2-oxo-1-phenylethyl)phenyl)benzamide]
7 | < 1000 nM | Cc1cc(C(=O)Nc2ccc(C(C(=O)NO)c3ccccc3)cc2)c(C)o1 (stereo not shown) [Compound 2-63, N-(4-(2-(hydroxyamino)-2-oxo-1-phenylethyl)phenyl)-2,5-dimethylfuran-3-carboxamide]
8 | 1000 to 15000 nM | Cc1cc(C(=O)Nc2cccc(C(C(=O)NO)c3ccccc3)c2)c(C)o1 (stereo not shown) [Compound 2-64, N-(3-(2-(hydroxyamino)-2-oxo-1-phenylethyl)phenyl)-2,5-dimethylfuran-3-carboxamide]
9 | < 1000 nM | Cc1ccsc1C(=O)Nc1ccc(C(C(=O)NO)c2ccccc2)cc1 (stereo not shown) [Compound 2-65, N-(4-(2-(hydroxyamino)-2-oxo-1-phenylethyl)phenyl)-3-methylthiophene-2-carboxamide]
10 | 1000 to 15000 nM | Cc1ccsc1C(=O)Nc1cccc(C(C(=O)NO)c2ccccc2)c1 (stereo not shown) [Compound 2-66, N-(3-(2-(hydroxyamino)-2-oxo-1-phenylethyl)phenyl)-3-methylthiophene-2-carboxamide]
11 | < 1000 nM | O=C(COc1ccccc1)Nc1ccc(C(C(=O)NO)c2ccccc2)cc1 (stereo not shown) [Compound 2-67, N-hydroxy-2-(4-(2-phenoxyacetamido)phenyl)-2-phenylacetamide]
12 | < 1000 nM | O=C(COc1ccccc1)Nc1cccc(C(C(=O)NO)c2ccccc2)c1 (stereo not shown) [Compound 2-68, N-hydroxy-2-(3-(2-phenoxyacetamido)phenyl)-2-phenylacetamide]
13 | < 1000 nM | COc1ccc(C(=O)Nc2cccc(C(C(=O)NO)c3ccccc3)c2)cc1 (stereo not shown) [Compound 2-69, N-(3-(2-(hydroxyamino)-2-oxo-1-phenylethyl)phenyl)-4-methoxybenzamide]
14 | < 1000 nM | O=C(CCC1CCCCC1)Nc1ccc(C(C(=O)NO)c2ccccc2)cc1 (stereo not shown) [Compound 2-70, 3-cyclohexyl-N-(4-(2-(hydroxyamino)-2-oxo-1-phenylethyl)phenyl)propanamide]
15 | < 1000 nM | O=C(CCC1CCCCC1)Nc1cccc(C(C(=O)NO)c2ccccc2)c1 (stereo not shown) [Compound 2-71, 3-cyclohexyl-N-(3-(2-(hydroxyamino)-2-oxo-1-phenylethyl)phenyl)propanamide]
16 | < 1000 nM | O=C(Nc1ccc(C(C(=O)NO)c2ccccc2)cc1)c1cccc(Cl)c1 (stereo not shown) [Compound 2-72, 3-chloro-N-(4-(2-(hydroxyamino)-2-oxo-1-phenylethyl)phenyl)benzamide]
17 | 1000 to 15000 nM | O=C(Nc1cccc(C(C(=O)NO)c2ccccc2)c1)c1cccc(Cl)c1 (stereo not shown) [Compound 2-73, 3-chloro-N-(3-(2-(hydroxyamino)-2-oxo-1-phenylethyl)phenyl)benzamide]

Row | IC50 | Structure (SMILES)
18 | < 1000 nM | O=C(Nc1ccc(C(C(=O)NO)c2ccccc2)cc1)c1ccnc(Cl)c1 (stereo not shown) [Compound 2-74, 2-chloro-N-(4-(2-(hydroxyamino)-2-oxo-1-phenylethyl)phenyl)isonicotinamide]
19 | < 1000 nM | O=C(Nc1ccc(C(C(=O)NO)c2ccccc2)cc1)c1ccc2c(c1)OCO2 (stereo not shown) [Compound 2-75, N-(4-(2-(hydroxyamino)-2-oxo-1-phenylethyl)phenyl)benzo[d][1,3]dioxole-5-carboxamide]
20 | < 1000 nM | O=C(Nc1cccc(C(C(=O)NO)c2ccccc2)c1)c1ccc2c(c1)OCO2 (stereo not shown) [Compound 2-76, N-(3-(2-(hydroxyamino)-2-oxo-1-phenylethyl)phenyl)benzo[d][1,3]dioxole-5-carboxamide]
21 | < 1000 nM | CC(C)CCNc1ccc(C(C(=O)NO)c2ccccc2)cc1 (stereo not shown) [Compound 2-77, N-hydroxy-2-(4-(isopentylamino)phenyl)-2-phenylacetamide]
22 | < 1000 nM | O=C(NO)C(c1ccccc1)c1ccc(NCc2ccccc2)cc1 (stereo not shown) [Compound 2-78, 2-(4-(benzylamino)phenyl)-N-hydroxy-2-phenylacetamide]
23 | 1000 to 15000 nM | O=C(NO)C(c1ccccc1)c1cccc(NCc2ccccc2)c1 (stereo not shown) [Compound 2-79, 2-(3-(benzylamino)phenyl)-N-hydroxy-2-phenylacetamide]
24 | < 1000 nM | O=C(NO)C(c1ccccc1)c1ccc(NCc2ccncc2)cc1 (stereo not shown) [Compound 2-80, N-hydroxy-2-phenyl-2-(4-(pyridin-4-ylmethylamino)phenyl)acetamide]
25 | < 1000 nM | O=C(NO)C(c1ccccc1)c1cccc(NCc2ccncc2)c1 (stereo not shown) [Compound 2-81, N-hydroxy-2-phenyl-2-(3-(pyridin-4-ylmethylamino)phenyl)acetamide]
26 | < 1000 nM | O=C(NO)C(c1ccccc1)c1ccc(NCC2CCCCC2)cc1 (stereo not shown) [Compound 2-82, 2-(4-(cyclohexylmethylamino)phenyl)-N-hydroxy-2-phenylacetamide]
27 | 1000 to 15000 nM | O=C(NO)C(c1ccccc1)c1cccc(NCC2CCCCC2)c1 (stereo not shown) [Compound 2-83, 2-(3-(cyclohexylmethylamino)phenyl)-N-hydroxy-2-phenylacetamide]
28 | < 1000 nM | COc1cccc(CNc2ccc(C(C(=O)NO)c3ccccc3)cc2)c1 (stereo not shown) [Compound 2-84, N-hydroxy-2-(4-(3-methoxybenzylamino)phenyl)-2-phenylacetamide]
29 | < 1000 nM | COc1cccc(CNc2cccc(C(C(=O)NO)c3ccccc3)c2)c1 (stereo not shown) [Compound 2-85, N-hydroxy-2-(3-(3-methoxybenzylamino)phenyl)-2-phenylacetamide]
30 | < 1000 nM | CCCS(=O)(=O)Nc1ccc(C(C(=O)NO)c2ccccc2)cc1 (stereo not shown) [Compound 2-86, N-hydroxy-2-phenyl-2-(4-(propylsulfonamido)phenyl)acetamide]
31 | 1000 to 15000 nM | CCCS(=O)(=O)Nc1cccc(C(C(=O)NO)c2ccccc2)c1 (stereo not shown) [Compound 2-87, N-hydroxy-2-phenyl-2-(3-(propylsulfonamido)phenyl)acetamide]
32 | < 1000 nM | O=C(NO)C(c1ccccc1)c1ccc(NS(=O)(=O)c2ccccc2)cc1 (stereo not shown) [Compound 2-88, N-hydroxy-2-phenyl-2-(4-(phenylsulfonamido)phenyl)acetamide]
33 | 1000 to 15000 nM | O=C(NO)C(c1ccccc1)c1cccc(NS(=O)(=O)c2ccccc2)c1 (stereo not shown) [Compound 2-89, N-hydroxy-2-phenyl-2-(3-(phenylsulfonamido)phenyl)acetamide]
34 | < 1000 nM | O=C(NO)C(c1ccccc1)c1ccc(NS(=O)(=O)c2cccs2)cc1 (stereo not shown) [Compound 2-90, N-hydroxy-2-phenyl-2-(4-(thiophene-2-sulfonamido)phenyl)acetamide]
